From US4725687A (priority 1986, dated 1988) come the findings set out here.

The test system of data set [1] is L1210 cells. Nature of the data set: L1210 cell growth inhibition in culture. Conditions: for IC50: Mus musculus; for potency in the L1210 cell growth inhibition test relative to 5-deazamethotrexate: compared with 5-deazamethotrexate; for potency in the L1210 cell growth inhibition test relative to MTX: compared with MTX. Type of data set: cell-based. An excerpt:
(§1) (a) Methods are described by Sirotnak et al, "Molecular Actions and
(§2) Targets for Cancer Chemotherapy Agents", Sartorelli, A.C. Ed., Academic
(§3) Press., New York, pps. 349-383 (1981); Sirotnak et al, Biochem.
(§4) Pharmacol., Vol. 29, p. 3293 (1980); and Sirotnak et al, Cancer Res., Vol

Data set [2] deals with L1210 cells. Nature of the data set: Mediated transport (influx, efflux) in L1210 cells. Type of data set: cell-based. To be noted: n = 3-4, SE; for Km: influx.
Description: as §1, §2, §3, §4

For data set [3], the system named is L1210 cells. Nature of the data set: Rate of net polyglutamate formation in L1210 cells. To be noted: for order of initial rates of polyglutamate accumulation: comparable rates of drug entry; for Rate of net polyglutamate formation: conditions of comparable rates of drug entry. The format is cell-based.
The subject of data set [4] is P388/0. Kind of data set: Survival of P388/0 bearing mice, in vivo. To be noted: for survival time: P388/0, ip, control 10.8 days; for % T/C: P388/0, survival time, ip. On the set-up: species or system murine. From the text:
(§5) Comparison of the Response of Murine P388/0
(§6) ^a Implant: ip, 10^6 cells; method described by Geran et al,
(§7) Cancer Chemother. Rep. Part 3, Vol. 3 (2) (1972).

The subject of data set [5] is P388/MTX. Nature of the data set: Survival of P388/MTX (MTX-resistant P388) bearing mice, in vivo. Also noted: species or system murine. To be noted: ip; for survival time: control 17.2 days; for % T/C: survival time.
Description: as §5, §6, §7

Data set [6] concerns EO771 mammary adenocarcinoma. Nature of the data set: Antitumor effects against the EO771 mammary adenocarcinoma in mice. The format is in vivo. To be noted: once per day for five days; for T/C (tumor volume treated/control) / tumor free total / AWC (average weight change): day 7; for toxic deaths total: day 7, 14 or 21; for ave. tumor vol.: day 7, ± SE, control 225 ± 60; for tumor free total: control 0/14. An excerpt: 5-Methyl-5-Deazamethotrexate (20) Against the EO771
Mammary Adenocarcinoma. Average of Two Separate
Experiments (5 Mice/Group) ± SE of the Mean.
^1 given once per day for five days starting one day after tumor
^2 average weight change on day 7 (one day after cessation of therapy
^3 assessed on day 7, 14 or 21
^4 assessed on day 7 (4/3 πr^3) T/C = treated/control
^5 assessed on day 7 (one day after cessation of therapy)

The mark [7] stands for this setting: read-out: Cell Growth inhibn IC50 (n = 4) ± SE, L1210 cells, n = 4, ± SE.
Where [8] appears, read: qd 1-5, optimal dose 0.25 mg/kg.

SMILES strings stand for the structures. Like-named read-outs stand apart in the source and are kept apart here.

Consider `CN(Cc1cnc2nc(N)nc(N)c2c1)c1ccc(C(=O)N[C@@H](CCC(=O)O)C(=O)O)cc1` [Compound 5-dMTX, 5-deazamethotrexate, reference compound], for which the IC50 in data set [1] (setting [7]) stood at 2850 ± 300 pM. Further, in data set [2], the “Mediated Transport efflux k + SE” value amounted to 0.28 ± 0.04 min⁻¹ and the Km worked out at 4 ± 0.5 µM. Moreover, in data set [3], the “order of initial rates of polyglutamate accumulation” value (“order” below) is recorded as “AMT>5-Me-5-dAMT>5-dAMT>MTX>5-dMTX>5-Me5-dMTX” and the “Rate of net polyglutamate formation” value stood at 48.8 pM/min/g dry wt. Further, in data set [4] (qd 1-5, optimal dose 4 mg/kg), the survival time is on record as 18.0 days and the “% T/C” value is reported as 166%. Also, in data set [5] (qd 1-5, optimal dose 4 mg/kg), the survival time amounted to 20.3 days and the “% T/C” value is listed as 118%.
Regarding `CCOC(=O)CC[C@H](NC(=O)c1ccc(NCc2cnc3nc(N)nc(N)c3c2)cc1)C(=O)OCC` [Compound 9, N-[4-[[(2,4-Diaminopyrido[2,3-d]pyrimidin-6-yl)methyl]-amino]benzoyl]-L-glutamic Acid Diethyl Ester], in data set [4] (qd 1-5, optimal dose 1 mg/kg), the survival time worked out at 16.2 days and the “% T/C” value is 151%. In data set [5] (qd 1-5, optimal dose 1 mg/kg), the survival time worked out at 20.8 days and the “% T/C” value worked out at 120%.
For the compound `Nc1nc(N)c2cc(CNc3ccc(C(=O)N[C@@H](CCC(=O)O)C(=O)O)cc3)cnc2n1` [Compound 11], in data set [1] (setting [7]), the IC50 amounted to 630 ± 70 pM. Also, in data set [2], the “Mediated Transport efflux k + SE” value was 0.30 ± 0.04 min⁻¹ and the Km worked out at 1.1 ± 0.2 µM. For the same compound, in data set [3], the “order” value was “AMT>5-Me-5-dAMT>5-dAMT>MTX>5-dMTX>5-Me5-dMTX” and the “Rate of net polyglutamate formation” value came out at 84.2 pM/min/g dry wt. Further, in data set [4] (qd 1-5, optimal dose 0.5 mg/kg), the survival time was 15.8 days and the “% T/C” value was 146%. Moreover, in data set [5] (qd 1-5, optimal dose 2 mg/kg), the survival time stood at 21.8 days and the “% T/C” value is 126%.
As to `Cc1c(CNc2ccc(C(=O)N[C@@H](CCC(=O)O)C(=O)O)cc2)cnc2nc(N)nc(N)c12` [Compound 12], in data set [1] (L1210, read-out: Cell Growth inhibn IC50 (n = 4) ± SE), the IC50 turned out to be 1290 ± 200 pM. Besides, in data set [2], the “Mediated Transport efflux k + SE” value stood at 0.26 ± 0.05 min⁻¹ and the Km was determined as 1.2 ± 0.2 µM. Further, in data set [3], the “order” value is listed as “AMT>5-Me-5-dAMT>5-dAMT>MTX>5-dMTX>5-Me5-dMTX” and the “Rate of net polyglutamate formation” value is 98.3 pM/min/g dry wt. In data set [4] (qd 1-5, optimal dose 0.5 mg/kg), the survival time was determined as 16.4 days and the “% T/C” value amounted to 151%. Moreover, in data set [5] (qd 1-5, optimal dose 0.5 mg/kg), the survival time was found to be 20.8 days and the “% T/C” value turned out to be 120%.
Turning to `Cc1c(CN(C)c2ccc(C(=O)N[C@@H](CCC(=O)O)C(=O)O)cc2)cnc2nc(N)nc(N)c12` [Compound 20, N-[4-[[2,4-Diamino-5-methylpyrido[2,3-d]pyrimidin-6-yl)methyl]methylamino]benzoyl-L-glutamic Acid], the IC50 in data set [1] (setting [7]) amounted to 240 ± 30 pM. Also, in data set [1], the “potency in the L1210 cell growth inhibition test relative to 5-deazamethotrexate” value is on record as “more than 10 times” and the “potency in the L1210 cell growth inhibition test relative to MTX” value turned out to be 10 times. Further, in data set [2], the “Mediated Transport efflux k + SE” value stood at 0.31 ± 0.05 min⁻¹ and the Km was found to be 3.2 ± 0.4 µM. In addition, in data set [3], the “order” value is on record as “AMT>5-Me-5-dAMT>5-dAMT>MTX>5-dMTX>5-Me5-dMTX” and the “Rate of net polyglutamate formation” value is 42.9 pM/min/g dry wt. Besides, in data set [4] (qd 1-5, optimal dose 1 mg/kg), the survival time turned out to be 19.7 days and the “% T/C” value was determined as 182%. Moreover, in data set [5] (setting [8]), the survival time is recorded as 20.8 days and the “% T/C” value came to 120%. For the same compound, in data set [6] (0.375 mg/kg), the “T/C (tumor volume treated/control)” value is recorded as 0.25, the toxic deaths total is listed as 0/10, the ave. tumor vol. was found to be 50 ± 16 mm^3 and the tumor free total is 0/10. In data set [6] (0.75 mg/kg), the “T/C (tumor volume treated/control)” value was 0.13, the toxic deaths total was 0/10, the ave. tumor vol. was determined as 35 ± 10 mm^3 and the tumor free total is recorded as 1/10. In data set [6] (1.5 mg/kg), the “T/C (tumor volume treated/control)” value turned out to be 0.03, the toxic deaths total is reported as 0/10, the ave. tumor vol. worked out at 4 ± 2 mm^3 and the tumor free total is 6/10. In data set [6] (3.0 mg/kg), the “T/C (tumor volume treated/control)” value was determined as 0.02, the toxic deaths total is reported as 5/6, the ave. tumor vol. came to 3 ± 1 mm^3 and the tumor free total result is “toxic”.
With `CCN(Cc1cnc2nc(N)nc(N)c2c1C)c1ccc(C(=O)N[C@@H](CCC(=O)O)C(=O)O)cc1` [Compound 21], the IC50 in data set [1] (setting [7]) was 260 ± 20 pM. In data set [1], the “potency in the L1210 cell growth inhibition test relative to 5-deazamethotrexate” value is reported as “more than 10 times” and the “potency in the L1210 cell growth inhibition test relative to MTX” value is 10 times. Moreover, in data set [2], the “Mediated Transport efflux k + SE” value was 0.29 ± 0.04 min⁻¹ and the Km was 3.3 ± 0.5 µM.
Take `CN(Cc1cnc2nc(N)nc(N)c2n1)c1ccc(C(=O)N[C@@H](CCC(=O)O)C(=O)O)cc1` [MTX, Methotrexate, reference compound]: in data set [2], the “Mediated Transport efflux k + SE” value was 0.33 ± 0.06 min⁻¹ and the Km is 3.3 ± 0.7 µM. Also, the “order” value in data set [3] was “AMT>5-Me-5-dAMT>5-dAMT>MTX>5-dMTX>5-Me5-dMTX”. In addition, in data set [4] (qd 1-5, optimal dose 4 mg/kg), the survival time is on record as 19.7 days and the “% T/C” value is 182%. In data set [5] (qd 1-5, optimal dose 3.5 mg/kg), the survival time was determined as 20.3 days and the “% T/C” value is recorded as 118%. Also, in data set [6] (1.5 mg/kg), the “AWC (average weight change)” value was “+0.9 g”, the “T/C (tumor volume treated/control)” value is recorded as 0.60, the toxic deaths total is reported as 0/10 and the ave. tumor vol. is reported as 102 ± 32 mm^3. In addition, the tumor free total in data set [6] (1.5 mg/kg) is 1/10. In data set [6] (3.0 mg/kg), the “AWC (average weight change)” value is on record as -0.2 g, the “T/C (tumor volume treated/control)” value was found to be 0.61, the toxic deaths total is reported as 0/10 and the ave. tumor vol. is 108 ± 24 mm^3. Moreover, the tumor free total in data set [6] (3.0 mg/kg) was 1/10. Also, in data set [6] (6.0 mg/kg), the “AWC (average weight change)” value is -2.1 g, the “T/C (tumor volume treated/control)” value came to 0.12, the toxic deaths total is given as 4/10 and the ave. tumor vol. was determined as 22 ± 5 mm^3. The tumor free total result in data set [6] (6.0 mg/kg) is reported as “toxic”.
